Results as given in ChEMBL document CHEMBL4007388, “Synthesis and antiproliferative activity of monocationic arylthiophene derivatives” (Eur J Med Chem, 2017).

Legend:
SK-OV-3 = test: Growth inhibition of human SKOV3 cells incubated for 48 hrs by sulforhodamine B assay; type: functional; details: SK-OV-3, 48 h
A549 = test: Growth inhibition of human A549/ATCC cells incubated for 48 hrs by sulforhodamine B assay; type: functional; details: A549, 48 h
OVCAR-5 = test: Growth inhibition of human OVCAR5 cells incubated for 48 hrs by sulforhodamine B assay; type: functional; details: OVCAR-5, 48 h
Hs-578T = test: Growth inhibition of human Hs 578T cells incubated for 48 hrs by sulforhodamine B assay; type: functional
ACHN = test: Growth inhibition of human ACHN cells incubated for 48 hrs by sulforhodamine B assay; type: functional
SW-620 = test: Growth inhibition of human SW620 cells incubated for 48 hrs by sulforhodamine B assay; type: functional; details: SW-620, 48 h
U-251 = test: Growth inhibition of human U251 cells incubated for 48 hrs by sulforhodamine B assay; type: functional; details: U-251, 48 h
NCI-H23 = test: Growth inhibition of human NCI-H23 cells incubated for 48 hrs by sulforhodamine B assay; type: functional; details: NCI-H23, 48 h
DU-145 = test: Growth inhibition of human DU145 cells incubated for 48 hrs by sulforhodamine B assay; type: functional; details: DU-145, 48 h
SF-268 = test: Growth inhibition of human SF268 cells incubated for 48 hrs by sulforhodamine B assay; type: functional; details: SF-268, 48 h
OVCAR-4 = test: Growth inhibition of human OVCAR4 cells incubated for 48 hrs by sulforhodamine B assay; type: functional; details: OVCAR-4, 48 h
CCRF-CEM = test: Growth inhibition of human CCRF-CEM cells incubated for 48 hrs by sulforhodamine B assay; type: functional
BT-549 = test: Growth inhibition of human BT549 cells incubated for 48 hrs by sulforhodamine B assay; type: functional; details: BT-549, 48 h
SN12C = test: Growth inhibition of human SN12C cells incubated for 48 hrs by sulforhodamine B assay; type: functional
WI-38 = test: Cytotoxicity against human WI38 cells assessed as reduction in cell viability after 24 hrs by MTT assay; type: cell-based; details: WI-38, 24 h
OVCAR-3 = test: Growth inhibition of human OVCAR3 cells incubated for 48 hrs by sulforhodamine B assay; type: functional; details: OVCAR-3, 48 h
UO-31 = test: Growth inhibition of human UO31 cells incubated for 48 hrs by sulforhodamine B assay; type: functional; details: UO-31, 48 h
RXF 393 = test: Growth inhibition of human RXF393 cells incubated for 48 hrs by sulforhodamine B assay; type: functional; details: RXF 393, 48 h
SF-539 = test: Growth inhibition of human SF539 cells incubated for 48 hrs by sulforhodamine B assay; type: functional; details: SF-539, 48 h
MCF7 = test: Growth inhibition of human MCF7 cells incubated for 48 hrs by sulforhodamine B assay; type: functional; details: MCF7, 48 h
NCI-H226 = test: Growth inhibition of human NCI-H226 cells incubated for 48 hrs by sulforhodamine B assay; type: functional; details: NCI-H226, 48 h
SNB-19 = test: Growth inhibition of human SNB19 cells incubated for 48 hrs by sulforhodamine B assay; type: functional; details: SNB-19, 48 h
LOX IMVI = test: Growth inhibition of human LOXIMVI cells incubated for 48 hrs by sulforhodamine B assay; type: functional
NCI-H460 = test: Growth inhibition of human NCI-H460 cells incubated for 48 hrs by sulforhodamine B assay; type: functional; details: NCI-H460, 48 h
NCI-H522 = test: Growth inhibition of human NCI-H522 cells incubated for 48 hrs by sulforhodamine B assay; type: functional; details: NCI-H522, 48 h
[1] = Antioxidant activity assessed as superoxide dismutase-like activity by measuring inhibition of superoxide radical anion production at 2 uM by NBT reduction assay relative to control; type: functional
HCC 2998 = test: Growth inhibition of human HCC2998 cells incubated for 48 hrs by sulforhodamine B assay; type: functional; details: HCC 2998, 48 h
MDA-MB-468 = test: Growth inhibition of human MDA-MB-468 cells incubated for 48 hrs by sulforhodamine B assay; type: functional; details: MDA-MB-468, 48 h
OVCAR-8 = test: Growth inhibition of human OVCAR8 cells incubated for 48 hrs by sulforhodamine B assay; type: functional; details: OVCAR-8, 48 h
SK-MEL-5 = test: Growth inhibition of human SK-MEL-5 cells incubated for 48 hrs by sulforhodamine B assay; type: functional; details: SK-MEL-5, 48 h
KM12 = test: Growth inhibition of human KM12 cells incubated for 48 hrs by sulforhodamine B assay; type: functional; details: KM12, 48 h
[2] = Growth inhibition of human NCI60 cells at 10 uM after 48 hrs by SRB assay relative to control; values are per cent of control; details: NCI60, 48 h
K562 = test: Growth inhibition of human K562 cells incubated for 48 hrs by sulforhodamine B assay; type: functional; details: K562, 48 h
CAKI-1 = test: Growth inhibition of human Caki1 cells incubated for 48 hrs by sulforhodamine B assay; type: functional; details: CAKI-1, 48 h
Malme-3M = test: Growth inhibition of human MALME-3M cells incubated for 48 hrs by sulforhodamine B assay; type: functional
IGROV-1 = test: Growth inhibition of human IGROV1 cells incubated for 48 hrs by sulforhodamine B assay; type: functional; details: IGROV-1, 48 h
NCI-H322M = test: Growth inhibition of human NCI-H322M cells incubated for 48 hrs by sulforhodamine B assay; type: functional
HT-29 = test: Growth inhibition of human HT-29 cells incubated for 48 hrs by sulforhodamine B assay; type: functional; details: HT-29, 48 h
NCI/ADR-RES = test: Growth inhibition of human NCI/ADR-RES cells incubated for 48 hrs by sulforhodamine B assay; type: functional
HOP-62 = test: Growth inhibition of human HOP62 cells incubated for 48 hrs by sulforhodamine B assay; type: functional; details: HOP-62, 48 h
SK-MEL-2 = test: Growth inhibition of human SK-MEL-2 cells incubated for 48 hrs by sulforhodamine B assay; type: functional; details: SK-MEL-2, 48 h
HL-60(TB) = test: Growth inhibition of human HL-60(TB) cells incubated for 48 hrs by sulforhodamine B assay; type: functional; details: HL-60, 48 h
WISH = test: Cytotoxicity against human WISH cells assessed as reduction in cell viability after 24 hrs by MTT assay; type: cell-based
TK-10 = test: Growth inhibition of human TK10 cells incubated for 48 hrs by sulforhodamine B assay; type: functional; details: TK-10, 48 h
HCT-116 = test: Growth inhibition of human HCT116 cells incubated for 48 hrs by sulforhodamine B assay; type: functional; details: HCT-116, 48 h
SR = test: Growth inhibition of human SR cells incubated for 48 hrs by sulforhodamine B assay; type: functional
UACC-257 = test: Growth inhibition of human UACC257 cells incubated for 48 hrs by sulforhodamine B assay; type: functional; details: UACC-257, 48 h
SK-MEL-28 = test: Growth inhibition of human SK-MEL-28 cells incubated for 48 hrs by sulforhodamine B assay; type: functional; details: SK-MEL-28, 48 h

N=C(N)c1ccc(-c2ccc(-c3ccc(F)cc3)s2)cc1
GI50 (SK-OV-3): 1610 nM
GI50 (A549): 2120 nM
GI50 (OVCAR-5): 1550 nM
GI50 (Hs-578T): 2160 nM
GI50 (ACHN): 1560 nM
GI50 (SW-620): 386 nM
GI50 (U-251): 457 nM
GI50 (NCI-H23): 1580 nM
GI50 (DU-145): 1630 nM
GI50 (SF-268): 1540 nM
GI50 (OVCAR-4): 1630 nM
GI50 (CCRF-CEM): 1820 nM
GI50 (BT-549): 1650 nM
GI50 (SN12C): 1590 nM
IC50 (WI-38): 197000 nM
GI50 (OVCAR-3): 1710 nM
GI50 (UO-31): 1580 nM
GI50 (RXF 393): 1480 nM
GI50 (SF-539): 1620 nM
GI50 (MCF7): 323 nM
GI50 (NCI-H226): 2190 nM
GI50 (SNB-19): 1930 nM
GI50 (LOX IMVI): 164 nM
GI50 (NCI-H460): 392 nM
GI50 (NCI-H522): 1870 nM
inhibition [1]: 59.6%
GI50 (HCC 2998): 492 nM
GI50 (MDA-MB-468): 1260 nM
GI50 (OVCAR-8): 2110 nM
GI50 (SK-MEL-5): 1600 nM
GI50 (KM12): 1340 nM
growth percent at 10 µM [2]: -78.7%
GI50 (K562): 268 nM
GI50 (CAKI-1): 1670 nM
GI50 (Malme-3M): 1550 nM
GI50 (IGROV-1): 1790 nM
GI50 (NCI-H322M): 1330 nM
GI50 (HT-29): 323 nM
GI50 (NCI/ADR-RES): 1770 nM
GI50 (HOP-62): 1580 nM
GI50 (SK-MEL-2): 2050 nM
GI50 (HL-60(TB)): 679 nM
IC50 (WISH): 232000 nM
GI50 (TK-10): 1850 nM
GI50 (HCT-116): 1580 nM
GI50 (SR): 307 nM
GI50 (UACC-257): 2580 nM
GI50 (SK-MEL-28): 1570 nM

COc1cc(OC)cc(-c2ccc(-c3ccc(C(=N)N)c(F)c3)s2)c1
GI50 (SK-OV-3): 1640 nM
GI50 (A549): 400 nM
GI50 (OVCAR-5): 207 nM
GI50 (Hs-578T): 1470 nM
GI50 (ACHN): 181 nM
GI50 (SW-620): 212 nM
GI50 (U-251): 198 nM
GI50 (NCI-H23): 1430 nM
GI50 (DU-145): 426 nM
GI50 (SF-268): 1150 nM
GI50 (OVCAR-4): 361 nM
GI50 (CCRF-CEM): 306 nM
GI50 (BT-549): 1370 nM
GI50 (SN12C): 712 nM
IC50 (WI-38): 123000 nM
GI50 (OVCAR-3): 815 nM
GI50 (UO-31): 473 nM
GI50 (RXF 393): 449 nM
GI50 (SF-539): 165 nM
GI50 (MCF7): 194 nM
GI50 (NCI-H226): 1730 nM
GI50 (SNB-19): 1030 nM
GI50 (LOX IMVI): 196 nM
GI50 (NCI-H460): 195 nM
GI50 (NCI-H522): 1200 nM
inhibition [1]: 55.5%
GI50 (HCC 2998): 207 nM
GI50 (MDA-MB-468): 182 nM
GI50 (OVCAR-8): 1200 nM
GI50 (SK-MEL-5): 956 nM
GI50 (KM12): 352 nM
growth percent at 10 µM [2]: -77.8%
GI50 (K562): 262 nM
GI50 (CAKI-1): 233 nM
GI50 (Malme-3M): 195 nM
GI50 (IGROV-1): 484 nM
GI50 (NCI-H322M): 502 nM
GI50 (HT-29): 267 nM
GI50 (NCI/ADR-RES): 1590 nM
GI50 (HOP-62): 1610 nM
GI50 (SK-MEL-2): 1860 nM
GI50 (HL-60(TB)): 229 nM
IC50 (WISH): 115000 nM
GI50 (TK-10): 1780 nM
GI50 (HCT-116): 173 nM
GI50 (SR): 224 nM
GI50 (UACC-257): 1850 nM
GI50 (SK-MEL-28): 176 nM

N=C(N)c1ccc(-c2ccc(-c3ccc(Cl)cc3)s2)cc1
GI50 (SK-OV-3): 246 nM
GI50 (A549): 202 nM
GI50 (OVCAR-5): 169 nM
GI50 (Hs-578T): 200 nM
GI50 (ACHN): 180 nM
GI50 (SW-620): 177 nM
GI50 (U-251): 172 nM
GI50 (NCI-H23): 190 nM
GI50 (DU-145): 185 nM
GI50 (SF-268): 184 nM
GI50 (OVCAR-4): 172 nM
GI50 (CCRF-CEM): 200 nM
GI50 (BT-549): 1730 nM
GI50 (SN12C): 180 nM
IC50 (WI-38): 131000 nM
GI50 (OVCAR-3): 194 nM
GI50 (UO-31): 175 nM
GI50 (RXF 393): 157 nM
GI50 (SF-539): 171 nM
GI50 (MCF7): 171 nM
GI50 (NCI-H226): 451 nM
GI50 (SNB-19): 194 nM
GI50 (LOX IMVI): 179 nM
GI50 (NCI-H460): 193 nM
GI50 (NCI-H522): 186 nM
inhibition [1]: 60.6%
GI50 (HCC 2998): 183 nM
GI50 (MDA-MB-468): 173 nM
GI50 (OVCAR-8): 223 nM
GI50 (SK-MEL-5): 204 nM
GI50 (KM12): 196 nM
growth percent at 10 µM [2]: -70.5%
GI50 (K562): 202 nM
GI50 (CAKI-1): 167 nM
GI50 (Malme-3M): 219 nM
GI50 (NCI-H322M): 182 nM
GI50 (HT-29): 177 nM
GI50 (NCI/ADR-RES): 185 nM
GI50 (SK-MEL-2): 241 nM
GI50 (HL-60(TB)): 214 nM
IC50 (WISH): 146000 nM
GI50 (TK-10): 220 nM
GI50 (HCT-116): 170 nM
GI50 (SR): 249 nM
GI50 (UACC-257): 310 nM
GI50 (SK-MEL-28): 176 nM
